Data published in paper PMC10362580, “Patient-derived organoids for precision oncology: a platform to facilitate clinical decision making” (BMC Cancer, 2023).
One block for each compound: values may come before it.

Key:
[1] = system: patient-derived primary ovarian cancer organoids (Tumor Organoid); assay: PDO drug sensitivity and resistance testing (CellTiter-Glo), ovarian tumor organoids; format: cell-based, human; conditions: for IC50: Homo sapiens; for Viability of organoids (CTG assay): ovarian cancer organoids
Method: (§1) Patient-derived tumor organoid was dissociated to single cells after seven days in culture. Epithelial Cells (from tumor and adjacent normal tissues) in combination with patient-derived isogenic adipose-derived Mesenchymal Stem Cells: iECs: MSCs (3:1:1) were seeded at a density of 5000 cells per well in 96-well clear bottom microplates. Multicellular organoids were allowed to grow for seven days. Breast and ovarian organoids were imaged every day and fed every alternate day with aforementioned Breast organoid medium and Ovarian organoid medium respectively. […] Organoids were subsequently incubated for […]; DMSO only- vehicle control and media only- negative control was used to set the baseline. After 0, 1, 7, 14 and 21 days ATP levels were measured with the CellTiter-Glo (Promega, Wisconsin, USA). All screenings were performed in triplicates. Data were analyzed using GraphPad Prism 6. Drug dose–response curves were visualized using […] analysis [setting: log (inhibitor) versus response, least-squares (ordinary) fit; top constraint 100%]. Concentrations where 50% cell viability (IC50-value) was reached were interpolated. The area under the curve (AUC) was approximated between the lowest and highest concentrations screened in the actual assay with the trapezoid rule for numerical integration. The dose–response curves were plotted as the percentage of the cell viability against the logarithm of drug concentrations in µM and were fitted to estimate the IC50.
(§2) We developed a protocol to culture and expand organoids from tissues collected from ovarian cancer patients. […] We performed drug sensitivity and resistance test (DSRT) using 2 FDA-approved commonly used therapeutic drugs paclitaxel and doxorubicin. Depending on the properties of the individual drugs, the concentrations ranged from 0.001 µM to 1000 µM (Fig. 6).
(§3) Following seven days incubation, organoid cultures were manually inspected using a phase-contrast microscope to check cell health and morphology prior to the addition of drugs. CellTiter-Glo® 2.0 determines the number of viable cells in a well, based on the quantification of ATP present, an indicator of metabolically viable cells. Total cell count was measured by CellTiter-Glo® 2.0, which causes cell lysis and produces a luminescence signal proportional to the amount of ATP present. Following completion of the above quality metrics, the data was normalized or the raw intensity data was used for curve-fitting. • Data normalization: Normalization was completed using the following calculation: (Raw intensity signal- Mean of positive control/ Mean of negative control-Mean positive control)

[2] = system: Normal Organoid from normal adjacent tissue of ovarian cancer patients; assay: PDO drug sensitivity and resistance testing (CellTiter-Glo), ovarian normal adjacent tissue organoids; format: cell-based; conditions: Homo sapiens
Method: as §1, §2, §3

[3] = system: patient-derived breast cancer organoids (Tumor Organoid); assay: PDO drug sensitivity and resistance testing (CellTiter-Glo), breast tumor organoids; format: cell-based, human; conditions: for IC50: Homo sapiens; for Viability of organoids (CTG assay): breast cancer organoids; for Response of breast cancer PDOs to treatment: few breast cancer PDOs
Method: as §1
(§4) We investigated BC organoids in response to standard medications in order to assess their potential as in vitro disease models. Towards this, PDOs were treated with doxorubicin and paclitaxel (commonly used chemotherapeutic drugs).
as §3

[4] = system: Normal Organoid from normal adjacent tissue of breast cancer patients; assay: PDO drug sensitivity and resistance testing (CellTiter-Glo), breast normal adjacent tissue organoids; format: cell-based; conditions: Homo sapiens
Method: as §1, §4, §3

[5] = system: iPSCs-derived cardiomyocytes; assay: Calcium transient assay (cardiotoxicity); format: cell-based, human; conditions: 1 µM; cardiomyocytes from healthy donor, breast cancer and ovarian cancer patient
Method: To initiate cardiac differentiation, 10,000 cells/cm^2 of passage 11–20 single cell suspension of iPSCs were seeded on matrigel coated plates in mTeSR™1 media and incubated overnight to obtain 95% confluent culture. Once cells reached > 95% confluence, RPMI 1648 medium (Gibco)/B-27 Supplement Minus Insulin (Gibco)/ 100 ng/ml Activin A (Gibco) + Matrigel (Corning) + […] CHIR9902 (Stem Cell Technologies) was added. CHIR9902 only for 24 h. Day 02–04: RPMI 1648 medium (Gibco)/B-27 Supplement Minus Insulin (Gibco)/ activin A (Gibco) (100 ng/ml) and BMP4 (Gibco) (10 ng/ml) and bFGF. Day 05–06: RPMI 1640 (with L-glutamine) with 2% B27 minus insulin supplement, 1 µl IWR-1 (5 µM final). Day 07–09: RPMI 1640 with L-Glutamine (Gibco) with 2% B27 with insulin supplement (Gibco). Day10: At day 10 post-differentiation, changed the medium to RPMI 1648-low glucose medium (Gibco) and maintained the cells in this medium for 3 days (until day 13). Day 13: Returned cells to RPMI/B27 medium-with insulin (Gibco). At day 14, changed the medium back to RPMI-low glucose medium (Gibco) for a second glucose deprivation cycle. Cultured the cells in this low glucose state for 3 more days. Most of the non-cardiomyocytes will die in this low-glucose culture condition. At day 17, changed the medium to 2 ml of RPMI/B27 medium with insulin. The remaining cells will be highly purified cardiomyocytes. […]

[6] = system: iPSCs-derived forebrain motor neurons; assay: Neurite outgrowth assay (neurotoxicity); conditions: 1 µM; neurons from healthy donor, breast cancer and ovarian cancer patient
Method: Neurite outgrowth assay was performed to determine neurotoxicity. […] We tested neurotoxic chemotherapeutic drug on iPSC-derived neurons- control (healthy donor), breast cancer and ovarian cancer patients [46–48] using ImageXpress® Nano Automated Imaging System (Molecular Devices).

[7] = system: iPSCs-derived hepatocytes; assay: Cytoskeleton disruption in hepatocytes (hepatotoxicity); format: cell-based, human; conditions: 0.1 ug/ml; hepatocytes from healthy donors, breast cancer and ovarian cancer patients
Method: To initiate hepatic differentiation, 10, 000 cells/cm^2 of passage 11 (P11) single cell suspension of iPSCs were seeded on matrigel coated plates in mTeSR™1 media and incubated overnight to obtain 95% confluent culture. Once cells reached > 95% confluence, RPMI media (Gibco) + 2% B27 supplement (Gibco) + 100 ng/ml Activin A (Gibco) + 3 µM CHIR99021 (Stem Cell Technologies) + 2% Matrigel (Corning) was added. Day 1 to 4: RPMI (Gibco) media + 2% B27 supplement (Gibco) + 100 ng/ml Activin A (Sigma). Day 5 to 10: RPMI (Gibco) media + 2% B27 supplement (Gibco) + 10 ng/ml bFGF (Sigma) + 20 ng/ml BMP4 (Sigma) + 0.5% DMSO (Sigma); Day 11 to 15: RPMI 1648 (Gibco) media + 2% B27 supplement (Gibco) + 20 ng/ml HGF (Sigma) + 0.5% DMSO (Sigma); Day 16 to 21: RPMI 1648 (Gibco) media + 2% B27 supplement (Gibco) + 20 ng/ml Oncostatin M (Gibco) + 100 nM Dexamethasone + 20 ng/ml HGF (Sigma) + 0.5% DMSO (Sigma). […] The presence of intracellular glycogen in hepatocytes was assessed by periodic acid–Schiff’s (PAS) staining and nuclei were counterstained with Mayer’s haematoxylin [42]. […]

[8] = 168 h, Ovarian Cancer Sample 1, Tumor Organoid, day 7, CTG
[9] = 168 h, Ovarian Cancer Sample 2, Tumor Organoid, day 7, CTG
[10] = 168 h, Ovarian Cancer Sample 3, Tumor Organoid, day 7, CTG
[11] = 336 h, Ovarian Cancer Sample 1, Tumor Organoid, day 14, CTG
[12] = 336 h, Ovarian Cancer Sample 2, Tumor Organoid, day 14, CTG
[13] = 336 h, Ovarian Cancer Sample 3, Tumor Organoid, day 14, CTG
[14] = 504 h, Ovarian Cancer Sample 1, Tumor Organoid, day 21, CTG
[15] = 504 h, Ovarian Cancer Sample 2, Tumor Organoid, day 21, CTG
[16] = 504 h, Ovarian Cancer Sample 3, Tumor Organoid, day 21, CTG
[17] = 168 h, Ovarian Cancer Sample 1, Normal Organoid, day 7, CTG
[18] = 168 h, Ovarian Cancer Sample 2, Normal Organoid, day 7, CTG
[19] = 168 h, Ovarian Cancer Sample 3, Normal Organoid, day 7, CTG
[20] = 336 h, Ovarian Cancer Sample 1, Normal Organoid, day 14, CTG
[21] = 336 h, Ovarian Cancer Sample 2, Normal Organoid, day 14, CTG
[22] = 336 h, Ovarian Cancer Sample 3, Normal Organoid, day 14, CTG
[23] = 504 h, Ovarian Cancer Sample 1, Normal Organoid, day 21, CTG
[24] = 504 h, Ovarian Cancer Sample 2, Normal Organoid, day 21, CTG
[25] = 504 h, Ovarian Cancer Sample 3, Normal Organoid, day 21, CTG
[26] = 168 h, Breast Cancer Sample 1, Tumor Organoid, day 7, CTG
[27] = 168 h, Breast Cancer Sample 2, Tumor Organoid, day 7, CTG
[28] = 168 h, Breast Cancer Sample 3, Tumor Organoid, day 7, CTG
[29] = 336 h, Breast Cancer Sample 1, Tumor Organoid, day 14, CTG
[30] = 336 h, Breast Cancer Sample 2, Tumor Organoid, day 14, CTG
[31] = 336 h, Breast Cancer Sample 3, Tumor Organoid, day 14, CTG
[32] = 504 h, Breast Cancer Sample 1, Tumor Organoid, day 21, CTG
[33] = 504 h, Breast Cancer Sample 2, Tumor Organoid, day 21, CTG
[34] = 504 h, Breast Cancer Sample 3, Tumor Organoid, day 21, CTG
[35] = 168 h, Breast Cancer Sample 1, Normal Organoid, day 7, CTG
[36] = 168 h, Breast Cancer Sample 2, Normal Organoid, day 7, CTG
[37] = 168 h, Breast Cancer Sample 3, Normal Organoid, day 7, CTG
[38] = 336 h, Breast Cancer Sample 1, Normal Organoid, day 14, CTG
[39] = 336 h, Breast Cancer Sample 2, Normal Organoid, day 14, CTG
[40] = 336 h, Breast Cancer Sample 3, Normal Organoid, day 14, CTG
[41] = 504 h, Breast Cancer Sample 1, Normal Organoid, day 21, CTG
[42] = 504 h, Breast Cancer Sample 2, Normal Organoid, day 21, CTG
[43] = 504 h, Breast Cancer Sample 3, Normal Organoid, day 21, CTG

IC50 [1, 8]: 847 µM
IC50 [1, 9]: 2450 µM
IC50 [1, 10]: 987 µM
IC50 [1, 11]: 877 µM
IC50 [1, 12]: 2210 µM
IC50 [1, 13]: 1040 µM
IC50 [1, 14]: 1.02 µM
IC50 [1, 15]: 1930 µM
IC50 [1, 16]: 98.1 µM
IC50 [3, 26]: 902 µM
IC50 [3, 27]: 976 µM
IC50 [3, 28]: 938 µM
IC50 [3, 29]: 117 µM
IC50 [3, 30]: 1060 µM
IC50 [3, 31]: 92.2 µM
IC50 [3, 32]: 125 µM
IC50 [3, 33]: 97.6 µM
IC50 [3, 34]: 9.55 µM
Structure (SMILES): COc1cccc2c1C(=O)c1c(O)c3c(c(O)c1C2=O)C[C@@](O)(C(=O)CO)C[C@@H]3O[C@H]1C[C@H](N)[C@H](O)[C@H](C)O1 [Doxorubicin]
Viability of organoids (CTG assay) [1]: significantly decreased the viability of organoids
IC50 [2, 17]: 96.2 µM
IC50 [2, 18]: 2340 µM
IC50 [2, 19]: 102 µM
IC50 [2, 20]: 8.92 µM
IC50 [2, 21]: 2250 µM
IC50 [2, 22]: 8.89 µM
IC50 [2, 23]: 0.0119 µM
IC50 [2, 24]: 1160 µM
IC50 [2, 25]: 9.29 µM
Viability of organoids (CTG assay) [3]: significantly decreased the viability of organoids
Response of breast cancer PDOs to treatment [3]: resistant
IC50 [4, 35]: 96.6 µM
IC50 [4, 36]: 859 µM
IC50 [4, 37]: 955 µM
IC50 [4, 38]: 92 µM
IC50 [4, 39]: 1010 µM
IC50 [4, 40]: 96.4 µM
IC50 [4, 41]: 0.955 µM
IC50 [4, 42]: 9.53 µM
IC50 [4, 43]: 10.2 µM
Calcium oscillation/contraction pattern sensitivity, donor comparison [5]: Ovarian cancer patient’s cardiomyocytes was found more sensitive to Doxorubicin followed by breast cancer patient and healthy donor

IC50 [1, 8]: 16.7 µM
IC50 [1, 9]: 940 µM
IC50 [1, 10]: 2020 µM
IC50 [1, 11]: 20 µM
IC50 [1, 12]: 96 µM
IC50 [1, 13]: 945 µM
IC50 [1, 14]: 0.588 µM
IC50 [1, 15]: 9.74 µM
IC50 [1, 16]: 97.6 µM
IC50 [3, 26]: 83.6 µM
IC50 [3, 27]: 874 µM
IC50 [3, 28]: 849 µM
IC50 [3, 29]: 96.4 µM
IC50 [3, 30]: 103 µM
IC50 [3, 31]: 975 µM
IC50 [3, 32]: 94.9 µM
IC50 [3, 33]: 107 µM
IC50 [3, 34]: 8.95 µM
Structure (SMILES): CC(=O)O[C@H]1C(=O)[C@@]2(C)[C@H]([C@H](OC(=O)c3ccccc3)[C@]3(O)C[C@H](OC(=O)[C@H](O)[C@@H](NC(=O)c4ccccc4)c4ccccc4)C(C)=C1C3(C)C)[C@]1(OC(C)=O)CO[C@@H]1C[C@@H]2O [Paclitaxel]
Viability of organoids (CTG assay) [1]: significantly decreased the viability of organoids
IC50 [2, 17]: 22.7 µM
IC50 [2, 18]: 1240 µM
IC50 [2, 19]: 2120 µM
IC50 [2, 20]: 0.625 µM
IC50 [2, 21]: 76.7 µM
IC50 [2, 22]: 1010 µM
IC50 [2, 23]: 0.617 µM
IC50 [2, 24]: 89 µM
IC50 [2, 25]: 97.6 µM
Viability of organoids (CTG assay) [3]: significantly decreased the viability of organoids
Response of breast cancer PDOs to treatment [3]: sensitive
IC50 [4, 35]: 7.89 µM
IC50 [4, 36]: 947 µM
IC50 [4, 37]: 95.1 µM
IC50 [4, 38]: 8.53 µM
IC50 [4, 39]: 980 µM
IC50 [4, 40]: 100 µM
IC50 [4, 41]: 0.955 µM
IC50 [4, 42]: 1000 µM
IC50 [4, 43]: 10.2 µM
Neurite outgrowth sensitivity, donor comparison [6]: Ovarian cancer patient’s neurons were found more sensitive to paclitaxel followed by breast cancer patient and healthy donor

Structure (SMILES): C/C1=C/C(=O)O[C@@H]2C[C@@H](CC[C@H](C)/C=C\C=C\CC1)O[C@@](O)([C@@H]1CSC(=O)N1)C2 [Latrunculin a]
Cytoskeleton disruption sensitivity, donor comparison [7]: Ovarian cancer patient’s hepatocytes were found more sensitive to Latrunculin followed by breast cancer patient and healthy donor
